According to patent US8404677B2, “Kinase inhibitors” (Genosco, priority 2009, dated 2013):
Counter-ions that a name gives are not always drawn.

What was measured:
truncated human FLT3 = target: T1, truncated human FLT3 (Homo sapiens, UniProt P36888); test: Inhibition of enzymatic kinase activity (LANCE Ulight); type: biochemical
T1 construct: truncated human FAK, RET, FLT3, JAK2, and LRRK2 (CARNA BIOSCIENCES™); purchased Carna Biosciences
T1 sequence (P36888 564-993 limits assumed): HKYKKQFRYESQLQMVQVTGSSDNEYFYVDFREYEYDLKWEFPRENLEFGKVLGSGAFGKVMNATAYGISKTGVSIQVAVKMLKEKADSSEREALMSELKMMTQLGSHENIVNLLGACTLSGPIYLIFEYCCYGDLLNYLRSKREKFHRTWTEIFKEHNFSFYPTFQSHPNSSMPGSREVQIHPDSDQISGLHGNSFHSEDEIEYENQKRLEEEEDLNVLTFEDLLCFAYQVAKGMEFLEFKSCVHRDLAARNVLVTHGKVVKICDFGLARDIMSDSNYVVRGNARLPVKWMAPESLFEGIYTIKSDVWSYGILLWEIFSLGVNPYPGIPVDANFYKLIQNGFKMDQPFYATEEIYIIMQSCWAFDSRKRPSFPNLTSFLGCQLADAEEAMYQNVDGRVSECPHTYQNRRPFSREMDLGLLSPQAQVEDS
Protocol: (§1) Inhibition of Enzymatic SYK, ZAP70, PYK2, FAK, PIM1, RET, FLT3, JAK2 and LRRK2 Kinase Activity
(§2) Compounds of the invention were initially diluted to 10 mM in 100% DMSO (CALBIOCHEM™) for storage and made into kinase buffer solution to create a compound concentration ranging from 1 uM and 10 uM. Serial dilutions of compounds of the invention were dispensed into a 96-well plate (GREINER BIOSCIENCES™) at 6 μL each. Purified full-length human SYK, ZAP70, PIM1, PYK2 and truncated human FAK, RET, FLT3, JAK2, and LRRK2 (CARNA BIOSCIENCES™) were diluted in kinase buffer and added to the compound solutions and pre-incubated for 30 minutes at room temperature (1 hour for PYK2). […] The reaction mixture was incubated for 1 hour (2 hours for PYK2). Following the incubation, the stop solution made with EDTA, water, and Lance detection buffer ([…]™) was added (12 μL each) to stop phosphorylation.

truncated human JAK2 = target: T2, truncated human JAK2 (Homo sapiens, UniProt O60674); test: as above; type: biochemical
T2 construct: truncated human FAK, RET, FLT3, JAK2, and LRRK2 (CARNA BIOSCIENCES™); purchased Carna Biosciences
T2 sequence (O60674 826-1132 limits assumed): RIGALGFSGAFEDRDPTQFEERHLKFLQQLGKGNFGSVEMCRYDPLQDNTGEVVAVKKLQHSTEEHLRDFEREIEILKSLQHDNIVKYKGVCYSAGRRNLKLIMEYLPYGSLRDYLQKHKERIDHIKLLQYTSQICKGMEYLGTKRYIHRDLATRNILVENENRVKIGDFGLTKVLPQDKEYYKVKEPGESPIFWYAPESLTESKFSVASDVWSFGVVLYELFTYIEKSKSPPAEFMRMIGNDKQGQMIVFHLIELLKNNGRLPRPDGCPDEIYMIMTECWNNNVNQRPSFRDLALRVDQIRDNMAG
Protocol: as §1, §2

truncated human RET = target: T3, truncated human RET (Homo sapiens, UniProt P07949); test: as above; type: biochemical
T3 construct: truncated human FAK, RET, FLT3, JAK2, and LRRK2 (CARNA BIOSCIENCES™); purchased Carna Biosciences
T3 sequence (P07949 658-1114 limits assumed): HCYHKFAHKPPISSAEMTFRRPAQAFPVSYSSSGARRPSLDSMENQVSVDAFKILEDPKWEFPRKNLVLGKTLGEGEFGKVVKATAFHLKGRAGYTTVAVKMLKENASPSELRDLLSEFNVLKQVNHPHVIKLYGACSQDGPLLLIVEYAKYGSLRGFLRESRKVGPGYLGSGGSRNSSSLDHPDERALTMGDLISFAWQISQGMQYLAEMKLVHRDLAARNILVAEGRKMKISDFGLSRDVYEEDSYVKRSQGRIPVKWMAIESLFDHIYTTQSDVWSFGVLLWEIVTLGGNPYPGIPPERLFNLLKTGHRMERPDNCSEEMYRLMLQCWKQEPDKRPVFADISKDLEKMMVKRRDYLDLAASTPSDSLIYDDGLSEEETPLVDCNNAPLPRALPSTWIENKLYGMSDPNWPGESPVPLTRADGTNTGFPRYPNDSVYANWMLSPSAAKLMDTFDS
Protocol: as §1, §2

human ZAP70 = target: T4, human ZAP70 (Homo sapiens, UniProt P43403); test: as above; type: biochemical; settings: at 1 μM concentration; read-out: ZAP70 percentage inhibition
T4 construct: Purified full-length human SYK, ZAP70, PIM1, PYK2; purchased Carna Biosciences
T4 sequence (P43403 1-619): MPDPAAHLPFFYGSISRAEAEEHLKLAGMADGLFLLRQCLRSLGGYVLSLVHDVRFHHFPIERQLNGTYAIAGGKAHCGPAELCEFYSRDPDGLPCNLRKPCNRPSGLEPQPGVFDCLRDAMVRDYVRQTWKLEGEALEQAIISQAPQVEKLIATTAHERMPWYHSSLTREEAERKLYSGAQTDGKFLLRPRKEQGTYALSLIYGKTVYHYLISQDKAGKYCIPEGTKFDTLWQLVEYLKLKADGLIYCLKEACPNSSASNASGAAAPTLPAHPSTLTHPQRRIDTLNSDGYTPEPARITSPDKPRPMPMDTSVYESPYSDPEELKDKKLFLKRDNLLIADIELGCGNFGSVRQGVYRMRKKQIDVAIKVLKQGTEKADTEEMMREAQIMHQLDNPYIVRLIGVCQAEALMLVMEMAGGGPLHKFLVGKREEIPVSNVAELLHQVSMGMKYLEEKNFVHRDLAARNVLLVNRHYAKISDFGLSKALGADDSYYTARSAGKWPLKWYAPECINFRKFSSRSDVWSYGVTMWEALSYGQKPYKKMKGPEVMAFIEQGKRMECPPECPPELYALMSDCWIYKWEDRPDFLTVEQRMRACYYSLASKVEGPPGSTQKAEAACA
Protocol: as §1, §2

truncated human FAK = target: T5, truncated human FAK (Homo sapiens, UniProt Q05397); test: as above; type: biochemical; settings: for inhibition at 1 µM: at 1 μM concentration, read-out: FAK percentage inhibition; for IC50: read-out: FAK molar inhibition (IC50)
T5 construct: truncated human FAK, RET, FLT3, JAK2, and LRRK2 (CARNA BIOSCIENCES™); purchased Carna Biosciences
T5 sequence (Q05397 376-1052 limits assumed): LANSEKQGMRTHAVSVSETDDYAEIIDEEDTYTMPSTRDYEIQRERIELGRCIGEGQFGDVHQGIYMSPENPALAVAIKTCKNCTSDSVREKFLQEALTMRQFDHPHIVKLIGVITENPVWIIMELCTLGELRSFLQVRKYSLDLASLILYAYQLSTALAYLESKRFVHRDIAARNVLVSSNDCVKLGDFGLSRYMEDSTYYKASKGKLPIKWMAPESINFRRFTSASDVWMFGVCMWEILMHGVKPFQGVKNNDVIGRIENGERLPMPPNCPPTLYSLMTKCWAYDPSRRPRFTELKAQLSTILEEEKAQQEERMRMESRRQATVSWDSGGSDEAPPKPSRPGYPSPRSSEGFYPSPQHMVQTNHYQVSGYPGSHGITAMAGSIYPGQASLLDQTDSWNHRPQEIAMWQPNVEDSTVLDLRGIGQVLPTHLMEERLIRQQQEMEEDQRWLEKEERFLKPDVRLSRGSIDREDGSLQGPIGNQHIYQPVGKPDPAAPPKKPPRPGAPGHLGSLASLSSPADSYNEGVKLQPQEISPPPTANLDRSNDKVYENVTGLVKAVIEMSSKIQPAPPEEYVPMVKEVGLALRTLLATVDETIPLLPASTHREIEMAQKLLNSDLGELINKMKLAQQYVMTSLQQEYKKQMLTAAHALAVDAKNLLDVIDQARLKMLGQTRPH
Protocol: as §1, §2

human PIM1 = target: T6, human PIM1 (Homo sapiens, UniProt P11309); test: as above; type: biochemical; settings: at 1 μM concentration; read-out: PIM1 percentage inhibition
T6 construct: Purified full-length human SYK, ZAP70, PIM1, PYK2; purchased Carna Biosciences
T6 sequence (P11309 whole entry): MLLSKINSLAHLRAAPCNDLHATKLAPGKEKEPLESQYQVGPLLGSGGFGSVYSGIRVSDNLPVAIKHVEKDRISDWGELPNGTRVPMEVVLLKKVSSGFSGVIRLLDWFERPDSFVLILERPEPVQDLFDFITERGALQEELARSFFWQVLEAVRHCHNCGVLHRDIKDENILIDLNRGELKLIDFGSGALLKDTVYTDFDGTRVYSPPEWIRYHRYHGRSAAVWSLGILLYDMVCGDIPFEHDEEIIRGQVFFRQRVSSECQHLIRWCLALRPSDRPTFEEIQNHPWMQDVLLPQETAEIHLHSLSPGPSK
Protocol: as §1
as §2, with “phosphorylation. […] Substrate phosphorylation was a function of the 665 nm emission measured following the addition of the detection solution and 50 minutes of incubation.” for “phosphorylation.”

PYK2 = PYK2 (Homo sapiens, UniProt Q14289); test: as above; type: biochemical; design: Purified full-length human SYK, ZAP70, PIM1, PYK2; purchased Carna Biosciences; settings: for inhibition at 1 µM: at 1 μM concentration, read-out: PYK2 percentage inhibition; for IC50: read-out: PYK2 molar inhibition (IC50)
PYK2, sequence (Q14289 whole entry): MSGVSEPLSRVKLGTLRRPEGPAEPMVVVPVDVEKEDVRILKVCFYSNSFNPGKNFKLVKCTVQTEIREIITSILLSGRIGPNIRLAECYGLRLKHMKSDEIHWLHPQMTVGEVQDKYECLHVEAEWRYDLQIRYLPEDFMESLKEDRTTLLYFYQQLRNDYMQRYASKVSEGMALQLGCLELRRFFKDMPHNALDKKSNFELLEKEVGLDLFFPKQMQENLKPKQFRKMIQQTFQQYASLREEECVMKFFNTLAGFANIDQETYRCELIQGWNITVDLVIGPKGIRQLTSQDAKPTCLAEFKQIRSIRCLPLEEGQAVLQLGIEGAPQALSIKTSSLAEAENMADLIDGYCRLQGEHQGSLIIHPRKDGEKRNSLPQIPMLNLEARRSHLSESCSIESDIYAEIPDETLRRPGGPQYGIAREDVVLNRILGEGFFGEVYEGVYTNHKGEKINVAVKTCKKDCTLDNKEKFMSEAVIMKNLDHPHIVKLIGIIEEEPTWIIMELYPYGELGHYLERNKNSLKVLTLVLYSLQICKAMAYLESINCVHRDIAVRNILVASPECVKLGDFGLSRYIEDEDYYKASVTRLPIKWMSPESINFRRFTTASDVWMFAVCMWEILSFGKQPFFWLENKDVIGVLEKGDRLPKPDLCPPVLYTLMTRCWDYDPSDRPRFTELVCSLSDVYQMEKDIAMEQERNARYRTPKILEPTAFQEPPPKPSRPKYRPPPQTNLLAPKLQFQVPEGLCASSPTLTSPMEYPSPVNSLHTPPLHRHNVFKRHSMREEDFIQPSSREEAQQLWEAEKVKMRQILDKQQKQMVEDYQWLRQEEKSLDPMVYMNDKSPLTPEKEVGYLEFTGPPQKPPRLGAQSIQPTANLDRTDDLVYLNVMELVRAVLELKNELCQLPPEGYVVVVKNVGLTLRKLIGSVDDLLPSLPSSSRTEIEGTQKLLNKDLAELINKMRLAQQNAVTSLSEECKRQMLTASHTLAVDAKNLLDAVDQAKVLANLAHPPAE
Protocol: as §1, §2

SYK = SYK (Homo sapiens, UniProt P43405); test: as above; type: biochemical; design: Purified full-length human SYK, ZAP70, PIM1, PYK2; purchased Carna Biosciences; settings: for inhibition at 1 µM: at 1 μM concentration, read-out: SYK percentage inhibition; for IC50: read-out: SYK molar inhibition (IC50)
Protocol: as §1, §2

[1] = tested on: TNF-α release in THP-1 cells, IgG stimulation; test: SYK dependent TNF-α release assay (IgG stimulation); type: cell-based, human; settings: for percentage inhibition of TNF-α release compared with R406: IgG stimulated release, 0.3 μM
Protocol: Compounds of the invention were tested for their TNF-α release effect on THP-1 cells. For SYK dependent TNF-α release assay (i.e., via IgG stimulation), THP-1 cells derived from human monocytic cells were obtained from the American Type Culture Collection (ATCC, Manassas, Va.). This cell line was maintained with an Roswell Park Memorial Institute (RPMI) medium (GIBCO™) containing 10 fetal bovine serum (FBS; GIBCO™) and 0.05 mM 2-mercaptoethanol. The THP-1 cells were seeded at 1×10^5 cells/100 μL/well into human IgG ([…], INVITROGEN™)-coated 96 well culture plate, and serially diluted compound was then added. After an 18-hour incubation period at 37° C., supernatants were collected for the determination of the TNF-α level by enzyme-linked immunosorbent assay (ELISA), and the remaining cells were subjected to an MTT (yellow tetrazolium salt) assay to determine the cytotoxic effects of compound.

COc1cc(Nc2nc(N3CCC(O)CC3)nc3cc[nH]c(=O)c23)cc(OC)c1 [Compound 1, 4-(3,5-dimethoxyphenylamino)-2-(4-hydroxypiperidin-1-yl)pyrido[4,3,-d]pyrimidin-6(6H)-one]
IC50 (truncated human FLT3): 242 nM | IC50 (truncated human JAK2): 59.4 nM | IC50 (truncated human RET): 200 nM

COc1cc(Nc2nc(N3CCC(O)(CO)CC3)nc3cc[nH]c(=O)c23)cc(OC)c1 [Compound 2, 4-(3,5-dimethoxyphenylamino)-2-(4-hydroxy-4-(hydroxymethyl)piperidin-1-yl)pyrido[4,3d]pyrimidin-5(6H)-one]
IC50 (truncated human FLT3): 368 nM | IC50 (truncated human JAK2): 73.8 nM | IC50 (truncated human RET): 363 nM

N[C@@H]1CCN(c2nc(Nc3cccc(C(F)(F)F)c3)c3c(=O)[nH]ccc3n2)C1 [Compound 7, (R)-2-(3-aminopyrrolidin-1-yl)-4-(3-(trifluoromethyl)phenylamino)pyrido[4,3-d]pyrimidin-5(6H)-one hydrochloride]
inhibition at 1 µM (human ZAP70): 42% | inhibition at 1 µM (truncated human FAK): 83.5% | inhibition at 1 µM (human PIM1): 51.4% | inhibition at 1 µM (PYK2): 84.9% | inhibition at 1 µM (SYK): 92.6%

NC1CCC(Nc2nc(Nc3cccc(C(F)(F)F)c3)c3c(=O)[nH]ccc3n2)CC1 [Compound 9, 2-((1R,4R)-4-aminocyclohexylamino)-4-(3-(trifluoromethyl)phenylamino)pyrido[4,3-d]pyrimidin-5(6H)-one]
inhibition at 1 µM (human ZAP70): 32% | inhibition at 1 µM (truncated human FAK): 83% | inhibition at 1 µM (human PIM1): 64% | inhibition at 1 µM (PYK2): 89% | inhibition at 1 µM (SYK): 84%

N[C@@H]1CCCC[C@H]1Nc1nc(Nc2cc(C(F)(F)F)cc(C(F)(F)F)c2)c2c(=O)[nH]ccc2n1 [Compound 100, 2-((1R,2R)-2-aminocyclohexylamino)-4-(3,5-bis(trifluoromethyl)phenylamino)pyrido[4,3-d]pyrimidin-5(6H)-one]
inhibition at 1 µM (human ZAP70): 9% | inhibition at 1 µM (truncated human FAK): 21.9% | inhibition at 1 µM (PYK2): 88.4% | inhibition at 1 µM (SYK): 37.7%

O=c1[nH]ccc2nc(N[C@H]3CCNC3)nc(Nc3ccc(Oc4ccccc4)cc3)c12 [Compound 125, (S)-4-(phenoxyphenylamino)-2-(pyrrolidin-3-ylamino)pyrido[4,3-d]pyrimidin-5(6H)-one hydrochloride]
IC50 (truncated human FLT3): 0.6 nM | IC50 (truncated human JAK2): 24.9 nM | IC50 (truncated human RET): 3.4 nM

O=c1[nH]ccc2nc(N3CCC(O)CC3)nc(Nc3ccc(N4CCOCC4)cc3)c12 [Compound 134, 2-(4-hydroxypiperidin-1-yl)-4-(4-morpholinophenylamino)pyrido[4,3-d]pyrimidin-5(6H)-one]
IC50 (truncated human JAK2): 3.7 nM | IC50 (truncated human RET): 7.3 nM

COc1cc(Nc2nc(N3CCC(O)CC3)nc3cc[nH]c(=O)c23)cc(OC)c1OC [Compound 149, 2-(4-hydroxypiperidin-1-yl)-4-(3,4,5-triemethoxyphenylamino)pyrido[4,3d]pyrimidin-5(6H)-one]
IC50 (truncated human FLT3): 151 nM | IC50 (truncated human JAK2): 151 nM | IC50 (truncated human RET): 32.7 nM

COc1ccc(Nc2nc(N3CCC(O)CC3)nc3cc[nH]c(=O)c23)cc1C(F)(F)F [Compound 150, 2-(4-hydroxypiperidin-1-yl)-4-(4-methoxy-3-(trifluoromethyl)phenylamino)pyrido[4,3d]pyrimidin-5(6H)-one]
IC50 (truncated human FLT3): 106 nM | IC50 (truncated human JAK2): 65.3 nM | IC50 (truncated human RET): 115 nM

COc1ccc(Nc2nc(N3CCC(CO)CC3)nc3cc[nH]c(=O)c23)cc1C(F)(F)F [Compound 151, 2-(4-(hydroxymethyl)piperidin-1-yl)-4-(4-methoxy-3-(trifluoromethyl)phenylamino)pyrido[4,3d]pyrimidin-5(6H)-one]
IC50 (truncated human FAK): 217 nM | IC50 (PYK2): 90.2 nM | IC50 (SYK): 8.2 nM | percentage inhibition of TNF-α release compared with R406 [1]: greater than those exhibited by R406

COc1ccc(Nc2nc(N3CCC(O)(CO)CC3)nc3cc[nH]c(=O)c23)cc1C(F)(F)F [Compound 152, 2-(4-hydroxy-4-(hydroxymethyl)piperidin-1-yl)-4-(4-methoxy-3-(trifluoromethyl)phenylamino)pyrido[4,3-d]pyrimidin-5(6H)-one]
IC50 (truncated human FAK): 337 nM | IC50 (PYK2): 84.3 nM | IC50 (SYK): 2.7 nM | inhibition at 0.3 µM ([1]; Homo sapiens, IgG stimulation, At 0.3 μM, THP-1, read-out: Inhibition of TNF-α Release (percentage inhibition)): 80.5% | inhibition at 1 µM ([1]; Homo sapiens, IgG stimulation, At 1 μM, THP-1, read-out: Inhibition of TNF-α Release (percentage inhibition)): 82.9% | percentage inhibition of TNF-α release compared with R406 [1]: higher percentage inhibition

COc1cc(Nc2ncc(F)c(Nc3ccc4c(n3)NC(=O)C(C)(C)O4)n2)cc(OC)c1OC [Compound R406, reference compound]
Inhibition of TNF-α Release (percentage inhibition) ([1]; IgG stimulation, At 0.3 μM, THP-1): 49.9% | Inhibition of TNF-α Release (percentage inhibition) ([1]; IgG stimulation, At 1 μM, THP-1): 87.4%
